This note sets out measurements from US20200179319A1, “PHARMACEUTICAL FORMULATIONS AND THEIR USE” (Signum Biosciences, Inc., priority 2016, published 2020).

Common to all, as to assay type: physicochemical
Data set [1] in a line: Stability Study 1: storage stability of a formulation comprising the disodium salt, HPLC. The conditions noted are these: 25° C., heading 30° C.; for % weight in formulation after 1 month: after 1 month storage; for % weight in formulation after 3 months: after 3 months storage; for % weight in formulation after 6 months: after 6 months storage; for % weight in formulation after 9 months: after 9 months storage; for Initial (% weight of formulation): formulation comprising the disodium salt. As for the experimental part:
The stability of a formulation comprising the disodium salt of […] In each case, the percentage of 4-(((R)-1-carboxy-2-(((2E,6E)-3,7,11-trimethyldodeca-2,6,10-trien-1-yl)thio)ethyl)amino)-4-oxobutanoic acid remaining at each time point was determined by use of HPLC.

Data set [2] in a line: Stability Study 2 conducted at 5° C.: storage stability of a formulation comprising the disodium salt, HPLC. The settings on record: for weight percentage of the component, 1 months: 1 month at 5° C.; for weight percentage of the component, 2 months: 2 months at 5° C.; for weight percentage of the component, 3 months: 3 months at 5° C.; for weight percentage of the component, 6 months: 6 months at 5° C.; for weight percentage of the component, 9 months: 9 months at 5° C.; for weight percentage of the component, 12 months: 12 months at 5° C.; for weight percentage of the component, 18 months: 18 months at 5° C.; for weight percentage of the component, 24 months: 24 months at 5° C.; for weight percentage of the component, Initial: storage at 5° C. As for the experimental part:
The stability of a formulation comprising the disodium salt of 4-(((R)-1-carboxy-2-(((2E,6E)-3,7,11-trimethyldodeca-2,6,10-trien-1-yl)thio)ethyl)amino)-4-oxobutanoic acid was determined after storage at 5° C. for a period of 1 month, 2 months, 3 months, 6 months, 9 months, 12 months, 18 months, and 24 months. In each case, the percentage of 4-(((R)-1-carboxy-2-(((2E,6E)-3,7,11-trimethyldodeca-2,6,10-trien-1-yl)thio)ethyl)amino)-4-oxobutanoic acid remaining at each time point was determined by use of HPLC. Each of the percentages in the table below are expressed at the weight percentage of the component as compared to the total weight of the composition.

Data set [3] in a line: Screening Study (Example 5): sulfoxide formed in API solution with each agent, HPLC. The settings on record: for (% area sulfoxide for each agent/% area sulfoxide in Blank) / Average % area sulfoxide for 3 runs per agent: 24 hours exposed to air at room temperature, not protected from light; for (% area sulfoxide for each agent/% area sulfoxide in Blank): API stock in argon-sparged methanol; for % area sulfoxide relative to % area Control: Control: no agent, stored at 5° C. and protected from light; for Average % area sulfoxide for 3 runs per agent: pH 7.4 to 7.5 buffer, API disodium salt solution plus agent. As for the experimental part: A buffer solution was prepared by adding 0.72 g of Na2HPO4, 0.24 g KH2PO4 and 500 mL of deionized water into a container and mixing. The pH of the mixture was adjusted to 7.4 to 7.5 using NaOH and H3PO4.
(§1) A solution of each agent in the table below was prepared by adding 500 mg or each agent into a 25 mL volumetric flask and filling the flask to volume by the addition of the prepared buffer solution.
A 6% solution of API was prepared by adding 3.0 g the disodium salt of 4-(((R)-1-carboxy-2-(((2E,6E)-3,7,11-trimethyldodeca-2,6,10-trien-1-yl)thio)ethyl)amino)-4-oxobutanoic acid to a 50 mL volumetric flask filling the flask to volume by the addition of argon-sparged methanol, followed by mixing.
(§2) A screen was performed for each agent as follows: (1) 2.5 mL of the stock solution of API and 2.5 mL of each agent was added into scintillation vial, the vial was capped and the contents were mixed (repeated three times for each agent); and (2) allowing each resulting mixture to sit for 24 hours exposed to air at room temperature and not protected from light. A blank solution was prepared (3×) by adding buffer solution into the 100 mL volumetric flask in place of the agent and was stored under the same conditions as the other samples, 24 hours exposed to air at room temperature and not protected from light. After 24 hours, the contents of each vial were transferred to a 100 mL volumetric flask and each volumetric flask was filled to volume by the addition of methanol, and an aliquot of each mixture was removed and analyzed by HPLC.
The area of the sulfoxide of 4-(((R)-1-carboxy-2-(((2E,6E)-3,7,11-trimethyldodeca-2,6,10-trien-1-yl)thio)ethyl)amino)-4-oxobutanoic acid produced in each solution was calculated as follows: % area sulfoxide=Rsulfoxide/(Rparent+Rsulfoxide), wherein Rsuffoxide=the area under the response of the sulfoxide in the HPLC trace, and Rparent=the area under the response of 4-(((R)-1-carboxy-2-(((2E,6E)-3,7,11-trimethyldodeca-2,6,10-trien-1-yl)thio)ethyl)amino)-4-oxobutanoic acid in the HPLC trace. The control sample in Table 8 contained no agent, was stored at 5° C. and protected from light.

Data set [4] is described as follows: Screening Study (Example 3): sulfoxide formed in API solution with each agent, HPLC. The conditions noted are these: 24 hours exposed to air at room temperature, not protected from light; for Average % area sulfoxide for 3 runs per agent: API disodium salt solution plus agent. The protocol:
A buffer solution was prepared by adding 0.72 g of Na2HPO4, 0.24 g KH2PO4 and 500 mL of deionized water into a container and mixing.
as §1
A 6% solution of API was prepared by adding 3.0 g the disodium salt of 4-(((R)-1-carboxy-2-(((2E,6E)-3,7,11-trimethyldodeca-2,6,10-trien-1-yl)thio)ethyl)amino)-4-oxobutanoic acid to a 50 mL volumetric flask and filling the flask to volume by the addition of methanol, followed by mixing.
as §2, with “a 100 mL volumetric flask” for “scintillation vial, the vial was capped”, “agent.” for “agent and was stored under the same conditions as the other samples, 24 hours exposed to air at room temperature and not protected from light.”, “hours,” for “hours, the contents of each vial were transferred to a 100 mL volumetric flask and”
The area of the sulfoxide of 4-(((R)-1-carboxy-2-(((2E,6E)-3,7,11-trimethyldodeca-2,6,10-trien-1-yl)thio)ethyl)amino)-4-oxobutanoic acid produced in each solution was calculated as follows: % area sulfoxide=Rsulfoxide/(Rparent+Rsulfoxide), wherein Rsuffoxide=the area under the response of the sulfoxide in the HPLC trace, and Rparent=the area under the response of 4-(((R)-1-carboxy-2-(((2E,6E)-3,7,11-trimethyldodeca-2,6,10-trien-1-yl)thio)ethyl)amino)-4-oxobutanoic acid in the HPLC trace.

Regarding `CC(C)=CCC/C(C)=C/CC/C(C)=C/CSC[C@H](NC(=O)CCC(=O)O)C(=O)O` [4-(((R)-1-carboxy-2-(((2E,6E)-3,7,11-trimethyldodeca-2,6,10-trien-1-yl)thio)ethyl)amino)-4-oxobutanoic acid], in data set [1], the “% weight in formulation after 1 month” value came to 2.97%, the “% weight in formulation after 3 months” value is 3.13%, the “% weight in formulation after 6 months” value was 2.92% and the “% weight in formulation after 9 months” value is reported as 2.87%. Also, in data set [1], the “Initial (% weight of formulation)” value turned out to be 3.09%. In data set [2], the “weight percentage of the component, 1 months” value (shortened to “weight percentage … 1 months”) came to 3.01 weight percentage; the “weight percentage of the component, 2 months” value is 3.00 weight percentage; the “weight percentage of the component, 3 months” value (“weight percentage … 3 months” for short) turned out to be 3.10 weight percentage; the “weight percentage of the component, 6 months” value (“weight percentage … 6 months” below) was 3.04 weight percentage. Besides, in data set [2], the “weight percentage of the component, 9 months” value (shortened to “weight percentage … 9 months”) was 3.03 weight percentage; the “weight percentage of the component, 12 months” value (“weight percentage … 12 months” for short) is listed as 3.06 weight percentage; the “weight percentage of the component, 18 months” value (“weight percentage … 18 months” for short) came to 3.10 weight percentage; the “weight percentage of the component, 24 months” value (“weight percentage … 24 months” for short) was found to be 3.05 weight percentage. Also, the “weight percentage of the component, Initial” value (“weight percentage … Initial” for short) in data set [2] is recorded as 3.09 weight percentage.

Regarding `O=C1O[C@H]([C@@H](O)CO)C(O)=C1O` [Ascorbic acid], in data set [3], the “(% area sulfoxide for each agent/% area sulfoxide in Blank)” value was 2.39, the “% area sulfoxide relative to % area Control” value is on record as 1.812 and the “Average % area sulfoxide for 3 runs per agent” value was 2.771%.

With `Cc1cc(C(C)(C)C)c(O)c(C(C)(C)C)c1` [Butylated hydroxytoluene (BHT), Butylated hydroxytoluene], in data set [3], the “(% area sulfoxide for each agent/% area sulfoxide in Blank)” value came to 1.02, the “% area sulfoxide relative to % area Control” value is listed as 0.227 and the “Average % area sulfoxide for 3 runs per agent” value came to 1.186%. In addition, in data set [4], the “% area sulfoxide relative to % area Control” value turned out to be 0.115, the “(% area sulfoxide for each agent/% area sulfoxide in Blank)” value was determined as 0.97 and the “Average % area sulfoxide for 3 runs per agent” value is recorded as 1.092%.

For the compound `O=C(CO)[C@@H](O)[C@H](O)[C@H](O)CO` [Fructose], in data set [4], the “% area sulfoxide relative to % area Control” value was 0.146, the “(% area sulfoxide for each agent/% area sulfoxide in Blank)” value is reported as “About 1” and the “Average % area sulfoxide for 3 runs per agent” value is listed as 1.123%.

Turning to `COC(=O)c1ccc(O)cc1` [Methylparaben], in data set [1], the “% weight in formulation after 1 month” value was 0.17%, the “% weight in formulation after 3 months” value worked out at 0.17%, the “% weight in formulation after 6 months” value was found to be 0.17% and the “% weight in formulation after 9 months” value is listed as 0.16%. For the same compound, the “Initial (% weight of formulation)” value in data set [1] turned out to be 0.17%. In data set [2], the “weight percentage … 1 months” value was 0.17 weight percentage; the “weight percentage of the component, 2 months” value stood at 0.17 weight percentage; the “weight percentage … 3 months” value is recorded as 0.17 weight percentage; the “weight percentage … 6 months” value is on record as 0.18 weight percentage. Further, in data set [2], the “weight percentage … 9 months” value is on record as 0.17 weight percentage; the “weight percentage … 12 months” value stood at 0.17 weight percentage; the “weight percentage … 18 months” value was 0.17 weight percentage; the “weight percentage … 24 months” value worked out at 0.15 weight percentage. The “weight percentage … Initial” value in data set [2] stood at 0.17 weight percentage.

`CCCOC(=O)c1ccc(O)cc1` [Propylparaben]: in data set [1], the “% weight in formulation after 1 month” value was 0.033%, the “% weight in formulation after 3 months” value is recorded as 0.034%, the “% weight in formulation after 6 months” value is 0.032% and the “% weight in formulation after 9 months” value worked out at 0.033%. Further, in data set [1], the “Initial (% weight of formulation)” value is recorded as 0.034%. For the same compound, in data set [2], the “weight percentage … 1 months” value is given as 0.032 weight percentage; the “weight percentage of the component, 2 months” value amounted to 0.032 weight percentage; the “weight percentage … 3 months” value was found to be 0.033 weight percentage; the “weight percentage … 6 months” value is given as 0.032 weight percentage. Further, in data set [2], the “weight percentage … 9 months” value is 0.033 weight percentage; the “weight percentage … 12 months” value was 0.032 weight percentage; the “weight percentage … 18 months” value was found to be 0.033 weight percentage; the “weight percentage … 24 months” value was 0.030 weight percentage. Further, the “weight percentage … Initial” value in data set [2] is on record as 0.034 weight percentage.

For the compound `CC(C)=CCC/C(C)=C/CC/C(C)=C/C[S+]([O-])C[C@H](NC(=O)CCC(=O)O)C(=O)O` (stereo partly drawn) [Sulfoxide of 4-(((R)-1-carboxy-2-(((2E,6E)-3,7,11-trimethyldodeca-2,6,10-trien-1-yl)thio)ethyl)amino)-4-oxobutanoic acid], in data set [1], the “% weight in formulation after 1 month” value is reported as 0.031%, the “% weight in formulation after 3 months” value was found to be 0.113%, the “% weight in formulation after 6 months” value is recorded as 0.053% and the “% weight in formulation after 9 months” value amounted to 0.134%. For the same compound, the “Initial (% weight of formulation)” value in data set [1] was 0.037%. Further, in data set [2], the “weight percentage … 1 months” value is given as 0.039 weight percentage; the “weight percentage of the component, 2 months” value came out at 0.076 weight percentage; the “weight percentage … 3 months” value is 0.112 weight percentage; the “weight percentage … 6 months” value amounted to 0.048 weight percentage. For the same compound, in data set [2], the “weight percentage … 9 months” value is 0.049 weight percentage; the “weight percentage … 12 months” value is recorded as 0.050 weight percentage; the “weight percentage … 18 months” value came to 0.052 weight percentage; the “weight percentage … 24 months” value was 0.044 weight percentage. In addition, the “weight percentage … Initial” value in data set [2] worked out at 0.037 weight percentage.

Take `CC(C)(C)c1cc(O)ccc1O` [Tert-butylhydroquinone (TBHQ), Tert-butylhydroquinone]: in data set [3], the “(% area sulfoxide for each agent/% area sulfoxide in Blank)” value came out at 7.38, the “% area sulfoxide relative to % area Control” value turned out to be 7.587 and the “Average % area sulfoxide for 3 runs per agent” value worked out at 8.546%.

For the compound `CC(=O)Oc1c(C)c(C)c2c(c1C)CCC(C)(CCC[C@H](C)CCC[C@H](C)CCCC(C)C)O2` (some centres unmarked) [Vitamin E acetate], in data set [3], the “(% area sulfoxide for each agent/% area sulfoxide in Blank)” value came to 1.01, the “% area sulfoxide relative to % area Control” value is reported as 0.208 and the “Average % area sulfoxide for 3 runs per agent” value is listed as 1.167%.

With `O=S([O-])CO.[Na+]` [sodium hydroxymethylsulfinate], in data set [4], the “% area sulfoxide relative to % area Control” value turned out to be 0.571, the “(% area sulfoxide for each agent/% area sulfoxide in Blank)” value came out at 1.37 and the “Average % area sulfoxide for 3 runs per agent” value is given as 1.548%.
